{"source": "patent US5284870A", "about": "“Aldose reductase inhibitor” (Shionogi Seiyaku Kabushiki Kaisha, priority 1992, dated 1994)", "target": "T1, aldose reductase (Rattus norvegicus, UniProt P07943)", "T1 construct": "Lenses were removed from 20 eyeballs of rats and homogenized in 4 ml of 5 mM mercaptethanol; from tissue; host or cells: rat lens, 10,000 rpm supernatant of homogenate", "test": "Aldose reductase-inhibiting activity (absorbance change at 340 nm, homogenate of rat lenses as enzyme source, glyceroaldehyde substrate, NADPH coenzyme)", "format": "biochemical", "conditions": "rat lens homogenate, 10 mM D,L-glyceroaldehyde, 0.4M Li2SO4, initial one minute", "procedure": "The change in absorbance at 340 nm for initial one minute was measured, and the inhibiting activity was determined.\nLenses were removed from 20 eyeballs of rats and homogenized in 4 ml of 5 mM mercaptethanol using Glass-Teflon Homogenate. The obtained homogenate was centrifuged at 4° C. and 10,000 rpm for 20 minutes, and resulting supernatant was used as the enzyme source.", "data": [{"compound": "O=C(O)CCC1(O)OC2=CC(=O)c3c(O)cc(O)cc3C2=C1c1ccc(O)cc1", "note": "(stereo not drawn) [RF-3192 A]", "values": [{"measurement": "IC50", "setting": "mass concentration", "result": 8.33, "unit": "nM"}, {"measurement": "IC50", "setting": "molar value in parentheses", "result": 8.2, "unit": "nM"}]}, {"compound": "O=C(O)CCC1(O)OC2=CC(=O)c3c(O)cc(O)cc3C2=C1c1ccccc1", "note": "(stereo not drawn) [RF-3192 B]", "values": [{"measurement": "Ic50", "setting": "mass concentration", "result": 1.6, "unit": "ng/mL"}, {"measurement": "IC50", "setting": "molar value in parentheses", "result": 4.2, "unit": "nM"}]}, {"compound": "O=C1C=C2OC3(O)CC(=O)c4c(O)cc(O)cc4C3=C2c2cc(O)cc(O)c21", "note": "(stereo not drawn) [RF-3192 C]", "values": [{"measurement": "Ic50", "setting": "mass concentration", "result": 130, "unit": "ng/mL"}, {"measurement": "IC50", "setting": "molar value in parentheses", "result": 340, "unit": "nM"}]}]}
